Experimental data published in US20230098332A1, “HETEROCYCLIC DERIVATIVES AS TRMP8 ANTAGONISTS” (Givaudan SA, priority 2020, published 2023).
Where a name gives a salt, the structure may show the parent alone.

Molecular target: T1, hTRPM8 (Homo sapiens, UniProt Q7Z2W7)
T1 construct: expressed in transfected cells
Experiment: Assay on TRPM8 modulators: calcium imaging (Fluo-4, Flexstation) in HEK293 cell line stably expressing hTRPM8
Format: cell-based
Conditions: TRPM8 agonist activity, calcium influx, HEK293 stably expressing hTRPM8, sigmoidal dose-response fit
Protocol: A HEK293 cell line stably expressing hTRPM8 was generated according to Klein et al., (Chem. Senses 36: 649-658, 2011) and receptor activation was monitored by calcium imaging in a Flexstation. For Ca-imaging assays of TRPM8 channel activation, cells were seeded on day 0 at a density of 12000 cells per well in Dulbecco's modified Eagle medium (DMEM) containing 9% foetal bovine serum in black, clear bottom 96-well plates that had been coated with 0.001% polyethyleneimine (molecular weight=60 000, Acros Organics). On day 2, agonists were evaluated via calcium imaging using Fluo-4. Briefly, growth medium was discarded, and the cells were incubated in the dark for 1 h at 37° C. in 50 μL loading buffer consisting of 2.7 μM Fluo-4 AM (Invitrogen) and […] probenecid (Sigma-Aldrich) in DMEM (without serum). After incubation, the plates were washed five times with 100 μL of assay buffer (in mM: 130 NaCl, 5 KCl, 10 HEPES, 2 CaCl2, and 10 glucose, pH7.4.) and further incubated in the dark at room temperature for 30 min. The cells were then washed five times with 100 μL assay buffer and then calcium influx to serial dilutions of inventive compounds were measured in a Flexstation 3 (Molecular Devices). Receptor activation was initiated following addition of 20 μl of a 10-fold concentrated ligand stock solution, which is also prepared in assay buffer. Fluorescence was continuously monitored for 15 seconds prior to ligand addition and for 105 seconds after ligand addition, for a total of 120 seconds. Maximal receptor activation in relation to solvent control and relative to 31.6 μM menthol is determined. Data from serial dilutions were processed with a KNIME workflow to fit a sigmoidal dose-response curve and to extrapolate EC50 values.

T1 sequence (Q7Z2W7 whole entry): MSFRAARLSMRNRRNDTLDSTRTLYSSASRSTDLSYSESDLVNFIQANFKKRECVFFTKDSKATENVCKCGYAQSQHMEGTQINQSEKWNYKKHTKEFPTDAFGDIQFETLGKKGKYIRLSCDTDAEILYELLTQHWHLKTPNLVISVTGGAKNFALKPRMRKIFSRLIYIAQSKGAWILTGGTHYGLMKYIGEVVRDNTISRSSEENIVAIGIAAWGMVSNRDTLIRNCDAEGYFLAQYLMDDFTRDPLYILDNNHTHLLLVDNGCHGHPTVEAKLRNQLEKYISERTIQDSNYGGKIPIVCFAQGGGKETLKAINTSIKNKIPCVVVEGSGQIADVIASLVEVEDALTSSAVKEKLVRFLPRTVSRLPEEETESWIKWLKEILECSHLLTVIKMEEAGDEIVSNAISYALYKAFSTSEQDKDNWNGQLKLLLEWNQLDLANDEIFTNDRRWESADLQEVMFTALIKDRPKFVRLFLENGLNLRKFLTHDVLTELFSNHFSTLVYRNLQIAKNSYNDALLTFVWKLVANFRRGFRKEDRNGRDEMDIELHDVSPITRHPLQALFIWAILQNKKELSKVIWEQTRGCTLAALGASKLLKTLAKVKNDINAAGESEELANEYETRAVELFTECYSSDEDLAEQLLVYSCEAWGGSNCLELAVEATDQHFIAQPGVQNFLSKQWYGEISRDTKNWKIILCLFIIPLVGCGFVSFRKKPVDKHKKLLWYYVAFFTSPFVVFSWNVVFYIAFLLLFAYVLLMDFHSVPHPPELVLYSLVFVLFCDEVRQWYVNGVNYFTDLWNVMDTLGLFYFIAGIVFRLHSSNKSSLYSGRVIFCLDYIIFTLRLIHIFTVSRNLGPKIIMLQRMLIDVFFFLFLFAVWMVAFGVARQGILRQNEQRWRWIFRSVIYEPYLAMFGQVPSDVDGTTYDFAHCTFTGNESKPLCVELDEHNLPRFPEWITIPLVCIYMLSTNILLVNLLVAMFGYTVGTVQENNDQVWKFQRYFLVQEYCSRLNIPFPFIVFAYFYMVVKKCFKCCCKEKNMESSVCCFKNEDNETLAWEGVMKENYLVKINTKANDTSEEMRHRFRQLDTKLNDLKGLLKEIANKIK

| SMILES | EC50 [nM] |
| --- | --- |
| Cc1ccc(OCCN2CCC(CO)CC2)c(Cc2ccccc2)c1 [compound 40, (1-(2-(2-benzyl-4-methylphenoxy)ethyl)piperidin-4-yl)methanol] | 1000 to 35000 |
| Cc1ccc(OCCN2CCN(C)CC2)c(C(O)c2ccccc2)c1 (centres unmarked) [compound 41, (5-methyl-2-(2-(4-methylpiperazin-1-yl)ethoxy)phenyl)(phenyl)methanol] | 1000 to 35000 |
| Cc1ccc(OCCN2CCN(C)CC2)c(C(=O)c2ccccc2)c1 [compound 42, (5-methyl-2-(2-(4-methylpiperazin-1-yl)ethoxy)phenyl)(phenyl)methanone] | 1000 to 35000 |
| CC1=C(OCCN2CCN(C)CC2)/C(=C/c2ccccc2)CC(C)C1 (centres unmarked) [compound 43, (E)-1-(2-((6-benzylidene-2,4-dimethylcyclohex-1-en-1-yl)oxy)ethyl)-4-methylpiperazine] | 1000 to 35000 |
| Cc1ccc(/C=C/CN2CCN(C)CC2)c(Cc2ccccc2)c1 [compound 44, (E)-1-(3-(2-benzyl-4-methylphenyl)allyl)-4-methylpiperazine] | 1000 to 35000 |
| Cc1ccc(OCCN2CCN(C)CC2)c(/C=C2\CCCCC2=O)c1 [compound 46, (E)-2-(5-methyl-2-(2-(4-methylpiperazin-1-yl)ethoxy)benzylidene)cyclohexan-1-one] | 300 to 1000 |
| Cc1ccc(OCCN2CCOCC2)c(/C=C2\CCCCC2=O)c1 [compound 47, (E)-2-(5-methyl-2-(2-morpholinoethoxy)benzylidene)cyclohexan-1-one] | 50 to 300 |
| Cc1cc(C)c(OCC(C)N2CCOCC2)c(Cc2ccccc2C#N)c1 (centres unmarked) [compound 48, 2-(3,5-dimethyl-2-(2-morpholinopropoxy)benzyl)benzonitrile] | 50 to 300 |
| Cc1cc(C)c(OC(C)CN2CCOCC2)c(Cc2ccccc2C#N)c1 (centres unmarked) [compound 49, 2-(3,5-dimethyl-2-((1-morpholinopropan-2-yl)oxy)benzyl)benzonitrile] | 50 to 300 |
| CN1CCN(CC2CCc3cccc(Cc4ccccc4)c3O2)CC1 (centres unmarked) [compound 50, 1-((8-benzylchroman-2-yl)methyl)-4-methylpiperazine] | 1000 to 35000 |
| CC1CCC(OCCN2CCN(C)CC2)C(Cc2ccccc2)C1 (centres unmarked) [compound 51, 1-(2-((2-benzyl-4-methylcyclohexyl)oxy)ethyl)-4-methylpiperazine] | 1000 to 35000 |
| CC1CCC(OCCN2CCN(C)CC2)C(Cc2ccccc2)C1 (centres unmarked) [compound 52, 1-(2-((2-benzyl-4-methylcyclohexyl)oxy)ethyl)-4-methylpiperazine dihydrochloride] | 1000 to 35000 |
| Cc1ccc(OCCN2CCN(C)CC2)c(Cc2ccc(Cl)s2)c1 [compound 53, 1-(2-(2-((5-chlorothiophen-2-yl)methyl)-4-methylphenoxy)ethyl)-4-methylpiperazine] | 1000 to 35000 |
| Cc1cc(C)c(OCCN2CCN(C)CC2)c(Cc2ccccc2Br)c1 [compound 54, 1-(2-(2-(2-bromobenzyl)-4,6-dimethylphenoxy)ethyl)-4-methylpiperazine] | 300 to 1000 |
| Cc1ccc(OCCN2CCN(C)CC2)c(Cc2ccccc2Cl)c1 [compound 55, 1-(2-(2-(2-chlorobenzyl)-4-methylphenoxy)ethyl)-4-methylpiperazine] | 50 to 300 |
| Cc1cc(C)c(OCCN2CCN(C)CC2)c(Cc2ccccc2F)c1 [compound 56, 1-(2-(2-(2-fluorobenzyl)-4,6-dimethylphenoxy)ethyl)-4-methylpiperazine] | 50 to 300 |
| Cc1cc(C)c(OCCN2CCN(C)CC2)c(Cc2ccccc2I)c1 [compound 57, 1-(2-(2-(2-iodobenzyl)-4,6-dimethylphenoxy)ethyl)-4-methylpiperazine] | 300 to 1000 |
| Cc1cc(C)c(OCCN2CCN(C)CC2)c(Cc2cccc(Br)c2)c1 [compound 58, 1-(2-(2-(3-bromobenzyl)-4,6-dimethylphenoxy)ethyl)-4-methylpiperazine] | 1000 to 35000 |
| Cc1ccc(OCCN2CCN(C)CC2)c(Cc2cccc(Cl)c2)c1 [compound 59, 1-(2-(2-(3-chlorobenzyl)-4-methylphenoxy)ethyl)-4-methylpiperazine] | 1000 to 35000 |
| Cc1ccc(OCCN2CCN(C)CC2)c(Cc2ccc(Cl)cc2)c1 [compound 60, 1-(2-(2-(4-chlorobenzyl)-4-methylphenoxy)ethyl)-4-methylpiperazine hydrochloride] | 1000 to 35000 |
| Cc1ccc(OCCN2CCN(C)CC2)c(Cc2ccco2)c1 [compound 61, 1-(2-(2-(furan-2-ylmethyl)-4-methylphenoxy)ethyl)-4-methylpiperazine] | 1000 to 35000 |
| Cc1cc(C)c(OCCN2CCN(C)CC2)c(Cc2ccccc2C(F)(F)F)c1 [compound 62, 1-(2-(2,4-dimethyl-6-(2-(trifluoromethyl)benzyl)phenoxy)ethyl)-4-methylpiperazine] | 300 to 1000 |
| Cc1cc(C)c(OCCN2CCN(C)CC2)c(Cc2ccccn2)c1 [compound 63, 1-(2-(2,4-dimethyl-6-(pyridin-2-ylmethyl)phenoxy)ethyl)-4-methylpiperazine] | 1000 to 35000 |

Next, values leading:

| EC50 [nM] | SMILES |
| --- | --- |
| 1000 to 35000 | Cc1cc(C)c(OCCN2CCN(C)CC2)c(Cc2cccnc2)c1 [compound 64, 1-(2-(2,4-dimethyl-6-(pyridin-3-ylmethyl)phenoxy)ethyl)-4-methylpiperazine] |
| 1000 to 35000 | Cc1cc(C)c(OCCN2CCN(C)CC2)c(Cc2ccncc2)c1 [compound 65, 1-(2-(2,4-dimethyl-6-(pyridin-4-ylmethyl)phenoxy)ethyl)-4-methylpiperazine] |
| 1000 to 35000 | Cc1ccc(C)c(OCCN2CCN(C)CC2)c1Cc1ccccc1 [compound 66, 1-(2-(2-benzyl-3,6-dimethylphenoxy)ethyl)-4-methylpiperazine] |
| 1000 to 35000 | COc1cccc(OCCN2CCN(C)CC2)c1Cc1ccccc1 [compound 67, 1-(2-(2-benzyl-3-methoxyphenoxy)ethyl)-4-methylpiperazine] |
| 1000 to 35000 | Cc1cccc(OCCN2CCN(C)CC2)c1Cc1ccccc1 [compound 68, 1-(2-(2-benzyl-3-methylphenoxy)ethyl)-4-methylpiperazine] |
| 1000 to 35000 | COc1cc(C(C)(C)C)cc(Cc2ccccc2)c1OCCN1CCN(C)CC1 [compound 69, 1-(2-(2-benzyl-4-(tert-butyl)-6-methoxyphenoxy)ethyl)-4-methylpiperazine] |
| 300 to 1000 | Cc1cc(C)c(OCCN2CCN(C)CC2)c(Cc2ccccc2)c1 [compound 70, 1-(2-(2-benzyl-4,6-dimethylphenoxy)ethyl)-4-methylpiperazine] |
| 1000 to 35000 | CCN1CCN(CCOc2ccc(Cl)cc2Cc2ccccc2)CC1 [compound 72, 1-(2-(2-benzyl-4-chlorophenoxy)ethyl)-4-ethylpiperazine hydrochloride] |
| 300 to 1000 | CN1CCN(CCOc2ccc(Cl)cc2Cc2ccccc2)CC1 [compound 73, 1-(2-(2-benzyl-4-chlorophenoxy)ethyl)-4-methylpiperazine hydrochloride] |
| 300 to 1000 | CCc1ccc(OCCN2CCN(C)CC2)c(Cc2ccccc2)c1 [compound 74, 1-(2-(2-benzyl-4-ethylphenoxy)ethyl)-4-methylpiperazine hydrochloride] |
| 1000 to 35000 | CC(C)c1ccc(OCCN2CCN(C)CC2)c(Cc2ccccc2)c1 [compound 75, 1-(2-(2-benzyl-4-isopropylphenoxy)ethyl)-4-methylpiperazine] |
| 1000 to 35000 | CCN1CCN(CCOc2ccc(C)cc2Cc2ccccc2)CC1 [compound 76, 1-(2-(2-benzyl-4-methylphenoxy)ethyl)-4-ethylpiperazine hydrochloride] |
